Consider twelve compounds from patent US20250368614A1, “COMPOUNDS AND METHODS FOR YAP/TEAD MODULATION AND INDICATIONS THEREFOR” (OPNA BIO SA, priority 2023, published 2025).

The structures appear in SMILES notation.

This test has as its system TEAD-dependent transcription (12XGTIIC TEAD response element luciferase reporter) in MSTO-211H cells. As to the kind of experiment: TEAD-dependent transcription cell-based luciferase reporter assay in MSTO-211H+12XGTIIC cells. As to conditions: Homo sapiens; MSTO-211H+12XGTIIC reporter cells, 24 hours compound incubation, luminescence normalized to cell viability signal, geometric mean; read-out: MSTO-211H GMean IC50 (uM) Cell Assay Reporter Cell Variant: TEAD. The source says: Determine Inhibitor Activity Against TEAD-Dependent Transcription in a Cell-Based Reporter Assay
The human mesothelioma cell line MSTO-211H was stably transfected with a pGL4.21 plasmid containing a synthetic promoter with 12 copies of the GTIIC TEAD response element that drives the expression of a luciferase reporter gene^1 using Lipofectamine transfection reagent (Thermo Fisher). Transfected cells were selected using puromycin and single cell clones expressing this construct (referred to as MSTO-211H+12XGTIIC) were generated by limiting dilution. MSTO-211H cells was characterized by genetic alterations in key components of the Hippo pathway^2, resulting in up-regulation of YAP/TEAD-mediated transcription. […] To evaluate TEAD inhibitors, the MSTO-211H+12XGTIIC cell line was seeded in a 96-well plate in 50 μL of culture media at 1×10^4 cells per well and incubated at 37° C. overnight. Serial dilutions of compounds (in total volume of 50 μL of culture media) were added to the cells and incubated at 37° C. for 24 hours. Each plate included cells treated with DMSO as high controls and cells treated with 20 μM of the reference compound K-975 (a known TEAD inhibitor^3) as low controls. Cell viability was assayed by the addition of 25 μL of CellTiter-Fluor reagent (Promega) followed by a 30-minute incubation at 37° C. and quantification of the fluorescence signal (Ex400/Em505). Subsequently, luciferase expression was assayed by the addition of 25 μL of ONE-Glo reagent (Promega) followed by a 10-minute incubation at room temperature and quantification of the luminescence signal. The luminescence signal was normalized to the fluorescence signal to correct for any loss in cell viability over the 24-hour compound incubation period. The percentage of inhibition of normalized luminescence signal, indicative of compound-mediated inhibition of TEAD-dependent transcription, at individual compound concentrations relative to high and low controls was calculated. The data were analyzed by using nonlinear regression to generate IC50 values for individual compounds.
Turning to `O=C(NCCC(=O)N1CCc2c(cccc2Nc2ccc(C(F)(F)F)cn2)C1)Nc1ccccn1` [Compound O-0186, 1-(3-oxo-3-(5-((5-(trifluoromethyl)pyridin-2-yl)amino)-3,4-dihydroisoquinolin-2(1H)-yl)propyl)-3-(pyridin-2-yl)urea], the IC50 (in general, the concentration that inhibits the measured activity by half) was in the range of 0.001 to 10 µM.

For `CN(c1ccc(C(F)(F)F)cc1)c1cccc2c1CCN(C(=O)c1ccc(N)cc1)C2` [Compound O-0015, (4-aminophenyl)(5-(methyl(4-(trifluoromethyl)phenyl)amino)-3,4-dihydroisoquinolin-2(1H)-yl)methanone], the IC50 fell in the range of 0.001 to 10 µM. For `CS(=O)(=O)c1cc(C(=O)N2CCc3c(cccc3Nc3ccc(C(F)(F)F)cc3)C2)ccn1` [Compound O-0201, (2-(methylsulfonyl)pyridin-4-yl)(5-((4-(trifluoromethyl)phenyl)amino)-3,4-dihydroisoquinolin-2(1H)-yl)methanone] the value was 0.001 to 10 µM. For `O=C1NC(=O)C(CC(=O)N2CCc3c(cccc3Nc3ccc(C(F)(F)F)cc3F)C2)N1` (stereo not drawn) [Compound O-0196, 5-(2-(5-((2-fluoro-4-(trifluoromethyl)phenyl)amino)-3,4-dihydroisoquinolin-2(1H)-yl)-2-oxoethyl)imidazolidine-2,4-dione] the value was 0.001 to 10 µM. To `C=CC(=O)Nc1ccnc(C(=O)N2CCc3c(cccc3Nc3ccc(C(F)(F)F)cc3)C2)c1` [Compound O-0036, N-(2-(5-((4-(trifluoromethyl)phenyl)amino)-1,2,3,4-tetrahydroisoquinoline-2-carbonyl)pyridin-4-yl)acrylamide] belongs 0.001 to 10 µM. Regarding `O=C(NC1CC1)N1CCC(C(=O)N2CCc3c(cccc3Nc3ccc(C(F)(F)F)nc3)C2)C1` (stereo not drawn) [Compound O-0096, N-cyclopropyl-3-(5-((6-(trifluoromethyl)pyridin-3-yl)amino)-1,2,3,4-tetrahydroisoquinoline-2-carbonyl)pyrrolidine-1-carboxamide], the concentration for half-maximal inhibition (IC50) lay within 0.001 to 10 µM. As to `Cn1cncc1CC(=O)N1CCc2c(cccc2Nc2ccc(C(F)(F)F)cc2)C1` [Compound O-0002, 2-(1-methyl-1H-imidazol-5-yl)-1-(5-((4-(trifluoromethyl)phenyl)amino)-3,4-dihydroisoquinolin-2(1H)-yl)ethan-1-one], the IC50 is 0.001 to 10 µM. As for `O=C(CCS(=O)(=O)C(F)(F)F)N1CCc2c(cccc2Nc2ccc(C(F)(F)F)cc2)C1` [Compound O-0010, 1-(5-((4-(trifluoromethyl)phenyl)amino)-3,4-dihydroisoquinolin-2(1H)-yl)-3-((trifluoromethyl)sulfonyl)propan-1-one], the IC50 was in the range of 0.001 to 10 µM. To `O=C(NC1CC1)N1CCC(C(=O)N2CCc3c(cccc3Nc3ccc(C(F)(F)F)c(F)c3)C2)C1` (stereo not drawn) [Compound O-0098, N-cyclopropyl-3-(5-((3-fluoro-4-(trifluoromethyl)phenyl)amino)-1,2,3,4-tetrahydroisoquinoline-2-carbonyl)pyrrolidine-1-carboxamide] belongs 0.001 to 10 µM; to `Nc1nccc(C(=O)N2CCc3c(cccc3Nc3ccc(C(F)(F)F)cc3)C2)n1` [Compound O-0033, (2-aminopyrimidin-4-yl)(5-((4-(trifluoromethyl)phenyl)amino)-3,4-dihydroisoquinolin-2(1H)-yl)methanone], 0.001 to 10 µM; to `O=C(NCCC(=O)N1CCc2c(cccc2Nc2ccc(C(F)(F)F)nc2)C1)NC1CC1` [Compound O-0195, 1-cyclopropyl-3-(3-oxo-3-(5-((6-(trifluoromethyl)pyridin-3-yl)amino)-3,4-dihydroisoquinolin-2(1H)-yl)propyl)urea], 0.001 to 10 µM. On to `Nc1cccc(CNC(=O)N2CCc3c(cccc3Nc3ccc(C(F)(F)F)cc3)C2)n1` [Compound O-0191, N-((6-aminopyridin-2-yl)methyl)-5-((4-(trifluoromethyl)phenyl)amino)-3,4-dihydroisoquinoline-2(1H)-carboxamide], for which the IC50 fell in the range of 0.001 to 10 µM.
